Source: PubChem BioAssay AID493048 (Broad Institute, 2011)
Activity calls are given as the source filed them. The rule behind the calls is not given here.

These compounds were tested against GTP-binding nuclear protein Ran (Homo sapiens) + Importin subunit beta-1 (Homo sapiens) (UniProt P62826+Q14974) (assay: inhibitors of Ran–importin-beta complex, dose response, biochemical, plate reader, dry powder (AID 493048)). Settings: biochemical RanGTP-importin-beta complex.

| AC50 | SMILES |
| --- | --- |
| 28.2 µM | Cc1cccc(-n2c(C)cc(/C=C3/C(=N)N4N=C(CC(C)C)SC4=NC3=O)c2C)c1 |
| 10.3 µM | CC1=C(C(=O)OCC2CCCO2)C(c2ccccc2OC(C)C)C2C(=O)CC(c3ccco3)CC2=N1 (stereo unspecified) |
| 61.5 µM | COc1ccc(-c2cc(C(F)(F)F)n3nc(N)nc3n2)cc1 |
| 90.9 µM | O=C(O)Cn1cc(/C=C2\SC(=O)N(CC(=O)N3CCCCCC3)C2=O)c2ccccc21 |
| 36.4 µM | C=CCn1c(N)c(C(=O)OCCC)c2nc3ccccc3nc21 |
| 12.9 µM | COc1cc(OC)cc(C(=O)NCCNc2nc3cc(C)cc(C)c3cc2C#N)c1 |
| 37.3 µM | CC(C)SCC(=O)Nc1ncc2c(n1)-c1ccccc1CC2 |
| 9.68 µM | COc1ccc(CCNC(=O)c2cc3c(=O)n4cccc(C)c4nc3n(CCCN3CCOCC3)c2=N)cc1 |

Same assay, conditions: biochemical RanGTP-importin-beta complex, at 26 µM (top of the series)

| activity change, negative = inhibition | SMILES |
| --- | --- |
| inactive | CCCN(CCC)c1nc(N2CCCC2)c2cc(OC)c(OC)cc2n1 |

Same assay, conditions: biochemical RanGTP-importin-beta complex, at 50 µM (top of the series)

| activity change, negative = inhibition | SMILES |
| --- | --- |
| inactive | CCCN(CCC)c1nc(N2CCCC2)nc2cc(OC)c(OC)cc12 |

Same assay, conditions: biochemical RanGTP-importin-beta complex, at 100 µM (top of the series)

| SMILES | activity change, negative = inhibition |
| --- | --- |
| Cc1cccc(C)c1NC(=O)C1C(=O)c2sccc2N(C)S1(=O)=O (stereo unspecified) | inactive |
| CC1(C)CC(=O)c2c(C(F)(F)F)nn(-c3ccc(C(N)=O)c(NC4CCC(O)CC4)c3)c2C1 (stereo unspecified) | inactive |
| CCCN(CCC)c1nc(N)c2ccccc2n1 | inactive |
| C[C@H](Nc1nc(Cl)nc2ccccc12)c1ccccc1 | inactive |
| CC1(C)CC(=O)c2c(C(F)(F)F)nn(-c3ccc(C(N)=O)c(OC4CCC(N)CC4)c3)c2C1 (stereo unspecified) | inactive |
| c1ccc2c(N3CCOCC3)nc(N3CCOCC3)nc2c1 | inactive |
| Cc1cc(Nc2ccc(C(F)(F)F)cc2)n2ncnc2n1 | inactive |
| CC1(C)CCC(c2ccc(Cl)cc2)=C(CN2CCN(c3ccc(C(=O)NS(=O)(=O)c4ccc(N[C@H](CCN5CCOCC5)CSc5ccccc5)c(S(=O)(=O)C(F)(F)F)c4)cc3)CC2)C1 | inactive |
| CC1(C)CC(=O)c2c(C(F)(F)F)nn(-c3ccc(C(N)=O)c(NC4CCC(OC(=O)CN)CC4)c3)c2C1 (stereo unspecified) | inactive |
| COc1cc2nc(N3CCCC3)nc(N3CCCC3)c2cc1OC | inactive |
| Clc1nc(NCc2ccccc2)c2ccccc2n1 | inactive |
| C[C@@H](Nc1nc(Cl)nc2ccccc12)c1ccccc1 | inactive |
| CSc1ccc(/C=C(/Sc2nnc(-c3ccccc3)o2)C(=O)O)cc1 | inactive |
| CCCN(CCC)c1nc(NCc2ccccc2)nc2ccccc12 | inactive |

More lines, now with the values ahead:

| activity change, negative = inhibition | SMILES |
| --- | --- |
| inactive | CCCN(CCC)c1nc(N2CCOCC2)nc2ccccc12 |
| inactive | c1ccc2c(N3CCCC3)nc(N3CCCC3)nc2c1 |
| inactive | CCN(CC)c1nc(N2CCCC2)nc2ccccc12 |
| inactive | CCCN(CCC)c1nc(N2CCCC2)nc2ccccc12 |
| inactive | O=c1[nH]c(N2CCCC2)nc2ccccc12 |
| inactive | CCNc1nc(N2CCCC2)nc2ccccc12 |
| inactive | C[C@@H](Nc1nc(N2CCCC2)nc2ccccc12)c1ccccc1 |
| inactive | CCCN(CCC)c1nc(Cl)nc2ccccc12 |
| inactive | c1ccc(CNc2nc(N3CCCC3)nc3ccccc23)cc1 |
| inactive | CCCN(CCC)c1nc(N2CCNCC2)c2ccccc2n1 |
| inactive | CC(Nc1nc(N2CCCC2)nc2ccccc12)c1ccccc1 (stereo unspecified) |
| inactive | C[C@H](Nc1nc(N2CCCC2)nc2ccccc12)c1ccccc1 |
